Tests used:
jack-bean urease = target: T1, jack-bean urease (Canavalia ensiformis, UniProt P07374); test: biochemical
T1 construct: purchased Sigma Aldrich
Experimental: The assay mixture, containing 50 μL (2 mg/mL) of jack-bean urease (purchased from Sigma Aldrich) and 100 μL of different concentration of test compounds, which were previously dissolved in ethanol 20%, was added to 850 μL of 25 mM urea and pre-incubated for 0.5 h in a water bath at 37 °C. The urease reaction was stopped after 30 min incubation by following procedure.
Urease activity was determined by measuring ammonia production using the indophenol method, as described by Weatherburn. After pre-incubation, 500 μL of phenol reagent (1% w/v phenol and 0.005% w/v sodium nitroprusside) and 500 μL of alkali reagent (1% w/v NaOH and 0.075% active chloride NaOCl) were added to 100 μL of incubation mixture and kept at 37 °C for 30 min. The absorbance was measured at 625 nm. All experiments were performed in triplicate in a final volume of 1 mL, and thiourea was used as a standard urease inhibitor.
Percentage inhibitions were calculated using the formula:(100 − (OD sample/OD control) × 100)
The IC50 values were then calculated using GraphPad Prism 5 software.

[1] = target: α-glucosidase from Saccharomyces cerevisiae; test: α-Glucosidase inhibition assay (chromogenic method, p-nitrophenyl-α-D-glucopyranoside); assay type: biochemical; conditions: pH 6.9, 37 °C; read-out: α Glucosidase Inhibition (IC50 ± S.E.M)
Experimental: α-glucosidase from Saccharomyces cerevisiae was purchased from Sigma Aldrich. […] The test samples were prepared (200 µg/mL) in DMSO and 10 μL of each sample was added to 20 μL of α-glucosidase solution (prepared in 120 μL of 0.1 M phosphate buffer, pH 6.9) in a 96-well plate format and incubated for 15 min at 37 °C. After incubation, 20 μL p-nitrophenyl-α-D-glucopyranoside (5 mM) solution was added to this mixture and incubated for a further 15 min. Finally, 80 µL of Na2CO3 solution (0.2 M) was added to this solution to stop the reaction and the absorbance was measured at 410 nm with SpectraMax microplate reader, M2. […] The α-glucosidase inhibition (%) was calculated with the help of the following formula:Inhibition (%) = (Absorbance of Control − Absorbance of Sample)/(Absorbance of Control) × 100
The IC50 values of the active samples were calculated using regression equation by plotting % inhibition at various concentrations.

T1 sequence (P07374 whole entry, looked up): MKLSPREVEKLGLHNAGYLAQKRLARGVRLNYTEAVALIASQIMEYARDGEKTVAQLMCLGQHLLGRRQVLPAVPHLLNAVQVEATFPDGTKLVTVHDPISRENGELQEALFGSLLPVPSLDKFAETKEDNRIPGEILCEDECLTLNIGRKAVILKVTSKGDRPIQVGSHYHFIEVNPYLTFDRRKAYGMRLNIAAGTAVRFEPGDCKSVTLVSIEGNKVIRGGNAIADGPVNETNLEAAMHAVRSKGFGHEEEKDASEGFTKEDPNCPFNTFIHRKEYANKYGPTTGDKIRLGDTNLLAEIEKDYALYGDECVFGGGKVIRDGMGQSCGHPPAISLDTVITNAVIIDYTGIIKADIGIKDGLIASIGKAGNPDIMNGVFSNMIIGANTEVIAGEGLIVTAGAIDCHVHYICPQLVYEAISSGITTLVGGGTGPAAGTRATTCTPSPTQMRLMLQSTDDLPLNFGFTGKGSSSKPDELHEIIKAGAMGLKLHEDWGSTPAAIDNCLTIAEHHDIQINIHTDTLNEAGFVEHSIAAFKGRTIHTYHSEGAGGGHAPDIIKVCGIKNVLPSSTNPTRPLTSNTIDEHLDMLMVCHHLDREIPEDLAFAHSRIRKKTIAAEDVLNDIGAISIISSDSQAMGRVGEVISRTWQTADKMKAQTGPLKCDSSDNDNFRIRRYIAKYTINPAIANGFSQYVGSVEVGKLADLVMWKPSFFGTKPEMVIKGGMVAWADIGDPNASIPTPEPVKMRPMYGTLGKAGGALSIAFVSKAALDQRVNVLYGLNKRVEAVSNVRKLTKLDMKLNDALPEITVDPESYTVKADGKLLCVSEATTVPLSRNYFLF

Compound | IC50 (jack-bean urease) [µM] | IC50 [1] [µM]
CCOC(=O)/C=C/[C@H]1C(C)=CC(=O)[C@H](OC)C1(C)C (relative stereo) [Compound 1, ethyl (E)-3-((1S,5R)-5-methoxy-2,6,6-trimethyl-4-oxocyclohex-2-en-1-yl)acrylate] | 16.87 ± 0.02 | 331.47 ± 0.04
CO[C@H]1C(=O)C=C(C)[C@H](/C=C/C(C)=O)C1(C)C (relative stereo) [Compound 3, (4S,6R)-6-methoxy-3,5,5-trimethyl-4-((E)-3-oxobut-1-en-1-yl)cyclohex-2-en-1-one] | 10.46 ± 0.03 | 310.68 ± 0.05
COC(=O)/C=C/[C@H]1C(C)=CC(=O)[C@H](OC)C1(C)C (relative stereo) [Compound 2, methyl (E)-3-((1S,5R)-5-methoxy-2,6,6-trimethyl-4-oxocyclohex-2-en-1-yl)acrylate] | 13.71 ± 0.07 | 294.18 ± 0.07
